# Laboratory results reported in US20230146455A1, “TREATMENT OF INFLAMMATORY DISEASES WITH PEPTIDES AND PHARMACEUTICAL COMPOSITIONS” (Yuyu Pharma, Inc., priority 2020, published 2023).
# Several values for one entry are separate records, joined by “and”; a condition that tells them apart may be missing. Equal entries are not always repeated. Where a SMILES comes first, the peptide text is derived from it. [ ]: non-standard residue; d: D form. Hyp = O=C(O)[C@@H]1C[C@@H](O)CN1
# Test system: GM-CSF
# Experiment: Example 9 Luminex, LPS hPBMCs: GM-CSF
# Format: cell-based, human
# Description: Treatment Human PBMCs were pretreated with YY-101, YDE-011 and YDE-043 or reference compound; Xiidra® at various concentration (ranging from 1 nM to 100 uM) for 2 h before stimulation. An equal volume of 0.5% DMSO was used as a vehicle control. Then, the cells were treated with LPS at 5 ug/ml. The supernatants from treated cells were harvested at 24 h and placed in a 96 well for Luminex cytokine & chemokine profiling using a Luminex 200 multiplex assay (Luminex; R&D system, USA).
# The main study arm with triplicate wells per group in a 24-well plate: • 1. Blank • 2. PBMC: 0.5% DMSO • 3. PBMC+LPS (5 ug/ml) • 4. PBMC+YY-101 100 uM • 5. PBMC+YY-101 10 uM • 6. PBMC+YY-101 1 uM • 7. PBMC+YY-101 0.1 uM • 8. PBMC+YY-101 0.01 uM • 9. PBMC+LPS (5 ug/ml)+Xiidra®100 uM • 10. PBMC+LPS (5 ug/ml)+Xiidra® 10 uM • 11. PBMC+LPS (5 ug/ml)+Xiidra® 1 uM • 12. PBMC+LPS (5 ug/ml)+Xiidra®0.1 uM • 13. PBMC+LPS (5 ug/ml)+Xiidra®0.01 uM • 14. PBMC+LPS (5 ug/ml)+Xiidra®0.001 uM • 15. PBMC+LPS (5 ug/ml)+YY-101 100 uM • 16. PBMC+LPS (5 ug/ml)+YY-101 10 uM • 17. PBMC+LPS (5 ug/ml)+YY-101 1 uM • 18. PBMC+LPS (5 ug/ml)+YY-101 0.1 uM • 19. PBMC+LPS (5 ug/ml)+YY-101 0.01 uM • 20. PBMC+LPS (5 ug/ml)+YY-101 0.001 uM • 21. PBMC+LPS (5 ug/ml)+YDE-011 100 uM • 22. PBMC+LPS (5 ug/ml)+YDE-011 10 uM • 23. PBMC+LPS (5 ug/ml)+YDE-011 1 uM • 24. PBMC+LPS (5 ug/ml)+YDE-011 0.1 uM • 25. PBMC+LPS (5 ug/ml)+YDE-011 0.01 uM • 26. PBMC+LPS (5 ug/ml)+YDE-011 0.001 uM • 27. PBMC+LPS (5 ug/ml)+YDE-043 100 uM • 28. PBMC+LPS (5 ug/ml)+YDE-043 10 uM • 29. PBMC+LPS (5 ug/ml)+YDE-043 1 uM • 30. PBMC+LPS (5 ug/ml)+YDE-043 0.1 uM • 31. PBMC+LPS (5 ug/ml)+YDE-043 0.01 uM • 32. PBMC+LPS (5 ug/ml)+YDE-043 0.001 uM
# Multiplex assay was used to measure 30 cytokines and chemokines. The 1:2, 1:10 and 1:200 diluted cell supernatant and serial dilution of the standard were dispensed into a 96 well plate at 50 ul/well. Then, the pre-mixed cocktail of antibody-coated magnetic beads was dispensed at 50 ul/well and incubated at room temperature for 2 h in a horizontal orbital microplate shaker at 800±500 rpm. The beads were washed using a magnetic device to prevent loss. The biotin-antibody was dispensed in 50 ul of each well and incubated at room temperature for 1 h in a shaker at 800±500 rpm. After washing, streptavidin-PE was added at 50 ul/well and incubated at room temperature for 30 min in a shaker under the same conditions. Finally, after washing, wash buffer (100 ul/well) was added to the plate and incubated in a shaker for 2 min. The Luminex™ 200 setting were set according to the manufacturer's protocol. The data was calculated with a standard five-parameter logistic nonlinear regression analysis of the data (xPonent software 4.2, USA). The levels of cytokine/chemokine are normalized to the live cell counts (1×10^5 cells/mL) and presented as concentrations per mL (pg/mL or ng/mL).
# [1] = PBMC + LPS(5 ug/ml) + test article 0.001 uM, single replicates
# [2] = PBMC + LPS(5 ug/ml) + test article 0.01 uM, Mean
# [3] = PBMC + LPS(5 ug/ml) + test article 0.01 uM, single replicates
# [4] = PBMC + LPS(5 ug/ml) + test article 0.1 uM, Mean
# [5] = PBMC + LPS(5 ug/ml) + test article 0.1 uM, single replicates
# [6] = PBMC + LPS(5 ug/ml) + test article 1 uM, Mean
# [7] = PBMC + LPS(5 ug/ml) + test article 1 uM, single replicates
# [8] = PBMC + LPS(5 ug/ml) + test article 10 uM, Mean
# [9] = PBMC + LPS(5 ug/ml) + test article 10 uM, single replicates
# [10] = PBMC + LPS(5 ug/ml) + test article 100 uM, Mean
# [11] = PBMC + LPS(5 ug/ml) + test article 100 uM, single replicates
# [12] = PBMC + test article 0.01 uM, no LPS, Mean
# [13] = PBMC + test article 0.01 uM, no LPS, single replicates
# [14] = PBMC + test article 0.1 uM, no LPS, Mean
# [15] = PBMC + test article 0.1 uM, no LPS, single replicates
# [16] = PBMC + test article 1 uM, no LPS, Mean
# [17] = PBMC + test article 1 uM, no LPS, single replicates
# [18] = PBMC + test article 10 uM, no LPS, Mean
# [19] = PBMC + test article 10 uM, no LPS, single replicates
# [20] = PBMC + test article 100 uM, no LPS, Mean
# [21] = PBMC + test article 100 uM, no LPS, single replicates
smiles,measurement,setting,value
CC(C)C[C@H](NC(=O)CNC(=O)[C@H](CC(=O)O)NC(=O)[C@H](CCC(N)=O)NC(=O)CNC(=O)[C@@H]1C[C@@H](O)CN1)C(=O)N[C@@H](C)C(=O)NCC(=O)N1CCC[C@H]1C(=O)N[C@@H](CCCCN)C(=O)O [YY-101] (H-[Hyp]GQDGLAGPK-OH; N-terminus and C-terminus assumed),GM-CSF conc/live cell,"PBMC + LPS(5 ug/ml) + test article 0.001 uM, Mean",24.7 pg/10^5
same,GM-CSF Concentration,[1],138.9 pg/mL and 160.4 pg/mL and 180.1 pg/mL
same,GM-CSF conc/live cell,[1],24.4 pg/10^5 and 22.6 pg/10^5 and 27.3 pg/10^5
same,GM-CSF Concentration,[2],159.0 pg/mL
same,GM-CSF conc/live cell,[2],25.8 pg/10^5
same,GM-CSF Concentration,[3],164.4 pg/mL and 159.6 pg/mL and 153.1 pg/mL
same,GM-CSF conc/live cell,[3],25.7 pg/10^5 and 26.6 pg/10^5 and 25.1 pg/10^5
same,GM-CSF Concentration,[4],139.7 pg/mL
same,GM-CSF conc/live cell,[4],23.9 pg/10^5
same,GM-CSF Concentration,[5],150.7 pg/mL and 135.6 pg/mL and 132.7 pg/mL
same,GM-CSF conc/live cell,[5],24.3 pg/10^5 and 26.1 pg/10^5 and 21.4 pg/10^5
same,GM-CSF Concentration,[6],141.2 pg/mL
same,GM-CSF conc/live cell,[6],21.7 pg/10^5
same,GM-CSF Concentration,[7],137.2 pg/mL and 133.1 pg/mL and 153.1 pg/mL
same,GM-CSF conc/live cell,[7],21.8 pg/10^5 and 18.8 pg/10^5 and 24.7 pg/10^5
same,GM-CSF Concentration,[8],148.1 pg/mL
same,GM-CSF conc/live cell,[8],22.5 pg/10^5
same,GM-CSF Concentration,[9],153.1 pg/mL and 143.8 pg/mL and 147.4 pg/mL
same,GM-CSF conc/live cell,[9],25.5 pg/10^5 and 22.5 pg/10^5 and 19.4 pg/10^5
same,GM-CSF Concentration,[10],224.0 pg/mL
same,GM-CSF conc/live cell,[10],38.7 pg/10^5
same,GM-CSF Concentration,[11],239.6 pg/ml and 216.3 pg/ml (2×)
same,GM-CSF conc/live cell,[11],38.0 pg/10^5 and 34.9 pg/10^5 and 43.3 pg/10^5
same,GM-CSF Concentration,[12],5.8 pg/mL
same,GM-CSF conc/live cell,[12],1.2 pg/10^5
same,GM-CSF Concentration,[13],5.3 pg/mL and 6.3 pg/mL
same,GM-CSF conc/live cell,[13],1.0 pg/10^5 and 1.3 pg/10^5
same,GM-CSF Concentration,[14],4.4 pg/mL
same,GM-CSF conc/live cell,[14],0.8 pg/10^5
same,GM-CSF Concentration,[15],1.9 pg/mL and 6.9 pg/mL
same,GM-CSF conc/live cell,[15],0.4 pg/10^5 and 1.2 pg/10^5
same,GM-CSF Concentration,[16],4.4 pg/mL
same,GM-CSF conc/live cell,[16],0.8 pg/10^5
same,GM-CSF Concentration,[17],4.7 pg/mL and 4.2 pg/mL
same,GM-CSF conc/live cell,[17],0.9 pg/10^5 and 0.8 pg/10^5
same,GM-CSF Concentration,[18],23.5 pg/mL
same,GM-CSF conc/live cell,[18],3.7 pg/10^5
same,GM-CSF Concentration,[19],33.5 pg/mL and 13.5 pg/mL
same,GM-CSF conc/live cell,[19],5.2 pg/10^5 and 2.2 pg/10^5
same,GM-CSF Concentration,[20],11.0 pg/mL
same,GM-CSF conc/live cell,[20],1.7 pg/10^5
same,GM-CSF Concentration,[21],14.5 pg/mL and 7.4 pg/mL
same,GM-CSF conc/live cell,[21],2.3 pg/10^5 and 1.1 pg/10^5
same,LPS-induced GM-CSF levels (in words),"at 100.iM, LPS 5 ug/mL 24 hrs",further increased
